From US11578041B2, “Crystals of hydroxychloroquine sulfate” (Genovate Biotechnology Co. Ltd., priority 2020, dated 2023)

Assays:
[1] = Solubility test in 16 solvents by stepwise solvent addition; format: physicochemical
[2] = tested on: Rat Pleurisy Macrophage Model; details: compared with (R)-(-)-isomer; cited from earlier work
[3] = animal study; cited from earlier work
[4] = Hygroscopicity by dynamic vapor sorption analysis; format: physicochemical; details: for RH at which moisture is adsorbed (adsorption curve) / moisture content: 25° C.; for RH at which moisture is adsorbed (adsorption curve): 5% RH increase per step from 0 to 95% RH; for moisture content: at 95% RH; for hygroscopicity compared with the amorphous form: overall conclusion
Experimental: Type A crystal, type B crystal, and an amorphous form of (S)-(+)-hydroxychloroquine sulfate were subjected to dynamic vapor sorption analysis to compare their hygroscopicity using a VTI-SA vapor sorption analyzer from TA Instruments (_New Castle, Del., USA). Each was exposed to a series of relative-humidity (“RH”)-change steps at 25° C., i.e, a 5% RH increase per step from 0 to 95% RH and then a 5% RH decrease per step from 95% to 5% RH.

[5] = Stability of crystal stirred in solvents, solid analysed by XRPD and chiral HPLC; format: physicochemical; details: room temperature, 1 day
Experimental: Further, the stability of type A crystal was determined by stirring the crystal (10 mg) in each of nine solvent (0.5 mL) at room temperature for 1 day. For the nine solvents, see Table 6 below. The resulting solid was analyzed by XRPD and chiral HPLC containing a chiral column of DAICEL CHIRALCEL OD-H, 250×4.6 mm, 5 μm.

[6] = Thermal stability by Variable Temperature PXRD under nitrogen; format: physicochemical
Experimental: The stability of type A crystal was also determined by heating the crystal to 30° C., 80° C., 130° C., 160° C., 180° C., and 210° C. under nitrogen using the Variable Temperature PXRD technique. […] Only when the temperature reached 80° C., 160° C. and 210° C., it was converted to type B, C, and D crystals, respectively.

“(±)-hydroxychloroquine [salt-free form of (±)-hydroxychloroquine]” showed a Solubility ([1]; 2-Methyl-tetrahydrofuran) of over 38 mg/mL, a Solubility ([1]; Acetone) of over 38 mg/mL and a Solubility ([1]; Acetonitrile) of 6.7 to 20 mg/mL. For the same molecule, the Solubility ([1]; Dichloromethane) was over 40 mg/mL, the Solubility ([1]; Dioxane) was over 40 mg/mL and the Solubility ([1]; Ethanol) was over 42 mg/mL. It also gave a Solubility ([1]; Ethyl acetate) of 6.7 to 20 mg/mL, a Solubility ([1]; Isopropanol) of over 38 mg/mL and a Solubility ([1]; Isopropyl acetate) of 6.7 to 20 mg/mL. For the same molecule, the Solubility ([1]; Methanol) was over 40 mg/mL, the Solubility ([1]; Methyl isobutyl ketone) was over 42 mg/mL and the Solubility ([1]; Methyl tert-butyl ether) was under 2.1 mg/mL. It also gave a Solubility ([1]; Tetrahydrofuran) of over 38 mg/mL, a Solubility ([1]; Toluene) of under 2.0 mg/mL and a Solubility ([1]; Water) of under 1.9 mg/mL. For the same molecule, the Solubility ([1]; n-Heptane) was under 2.1 mg/mL.

For `CCN(CCO)CCC[C@H](C)Nc1ccnc2cc(Cl)ccc12.O=S(=O)(O)O` (single isomer, unassigned) [(S)-(+)-isomer], the “more efficacious than the (R)-(-)-isomer” value [2] is listed as 70% and the “accumulation in ocular tissues compared with the (R)-(-)-isomer” value [3] is listed as “much less”.

For `CCN(CCO)CCC[C@H](C)Nc1ccnc2cc(Cl)ccc12.O=S(=O)(O)O` [type B crystal, (S)-(+)-hydroxychloroquine sulfate], the “RH at which moisture is adsorbed (adsorption curve)” value (from here on “RH at which moisture is adsorbed”) [4] was “higher than 60 % RH”, the moisture content [4] was 30% and the “hygroscopicity compared with the amorphous form” value [4] was “less hygroscopic”.

In the case of `CCN(CCO)CCC[C@H](C)Nc1ccnc2cc(Cl)ccc12.O=S(=O)(O)O` [amorphous form, (S)-(+)-hydroxychloroquine sulfate, reference compound], the “RH at which moisture is adsorbed” value [4] is reported as 25 % RH, the moisture content [4] is reported as 51% and the “susceptibility to environment (desorption curve)” value ([4]; compared with type A and type B crystals) is reported as “much more susceptible to an environment”.

For `CCN(CCO)CCC[C@H](C)Nc1ccnc2cc(Cl)ccc12.O=S(=O)(O)O` [type A crystal, (S)-(+)-hydroxychloroquine sulfate], the “RH at which moisture is adsorbed” value [4] was over 85 % RH, the moisture content [4] was 19% and the “hygroscopicity compared with the amorphous form” value [4] was “less hygroscopic”. For the same molecule, the Crystal change ([5]; Acetone) was “Not found”, the “ee of resulting solid” value ([5]; Acetone) was 95.4% and the Crystal change ([5]; Acetonitrile) was “Not found”. For the same molecule, the “ee of resulting solid” value ([5]; Acetonitrile) was 95.6%, the Crystal change ([5]; Dichloromethane) was “Not found” and the “ee of resulting solid” value ([5]; Dichloromethane) was 95.8%. For the same molecule, the Crystal change ([5]; Ethanol) was “Not found”, the “ee of resulting solid” value ([5]; Ethanol) was 96.7% and the Crystal change ([5]; Ethanol/water (9/1)) was “Not found”. The “ee of resulting solid” value ([5]; Ethanol/water (9/1), starting ee 96.2%) was 99.2%, the Crystal change ([5]; Ethyl acetate) was “Not found” and the “ee of resulting solid” value ([5]; Ethyl acetate) was 88.8%. The Crystal change ([5]; Isopropyl acetate) was “Not found”, the “ee of resulting solid” value ([5]; Isopropyl acetate) was 95.5% and the Crystal change ([5]; Methanol) was “Clear solution”. For the same molecule, the Crystal change ([5]; Tetrahydrofuran) was “Not found”, the “ee of resulting solid” value ([5]; Tetrahydrofuran) was 95.3% and the “stability in the test solvents (summary)” value ([5]; nine solvents) was “unexpectedly stable in all test solvents except in methanol”. For the same molecule, the “stability at room temperature” value ([6]; Variable Temperature PXRD under nitrogen) was “highly stable”, the “temperature at which converted to type B crystal” value ([6]; heating under nitrogen) was 80 °C and the “temperature at which converted to type C crystal” value ([6]; heating under nitrogen) was 160 °C. The “temperature at which converted to type D crystal” value ([6]; heating under nitrogen) was 210 °C.
